The text below walks through data of publication PMC5059578, “Construction of a Turn Off-On-Off Fluorescent System Based on Competitive Coordination of Cu^2+ between 6,7-Dihydroxycoumarin and Pyrophosphate Ion for Sensitive Assay of Pyrophosphatase Activity” (Journal of Analytical Methods in Chemistry, 2016).

Structures are written as SMILES.

This assay has as its target T1, Baker's yeast inorganic pyrophosphatase (PPase, EC 3.6.1.1) (Saccharomyces cerevisiae, UniProt P00817).
T1 construct: gene IPP1
Kind of assay: Fluorescent Cu2+-DHC-PPi displacement assay of PPase activity after preincubation with NaF. It counts as biochemical.

T1 sequence (P00817 2-287): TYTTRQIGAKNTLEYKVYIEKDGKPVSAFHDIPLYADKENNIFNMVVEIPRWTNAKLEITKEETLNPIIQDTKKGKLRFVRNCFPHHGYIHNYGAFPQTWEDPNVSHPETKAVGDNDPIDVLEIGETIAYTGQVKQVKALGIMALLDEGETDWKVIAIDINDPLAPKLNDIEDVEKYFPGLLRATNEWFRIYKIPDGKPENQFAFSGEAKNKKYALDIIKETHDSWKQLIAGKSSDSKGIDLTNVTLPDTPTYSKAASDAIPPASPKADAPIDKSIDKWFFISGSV

For the compound `[F-].[Na+]` [NaF], the IC50 was ~18.2 µM.
